Results as given in US4057644A, “Active derivatives of methylamine in therapeutic compositions and methods of use” (priority 1976, dated 1977).
Read-outs that look alike come from different tables or passages of the source.

Tests used:
[1] = Spasmolytic activity in vivo; details: at doses well below the toxic dose
[2] = test system: reserpine-induced catatonia; assay: Suppression of reserpine-induced catatonia (curative treatment); type: in vivo, rat (male, OFA strain); details: 2.5 and 5 mg/kg oral, versus amantadine 80 mg/kg
Protocol: Batches of 5 male rats of the OFA strain, weighing 150 to 200 g were given 5 mg/kg of reserpine by intraperitoneal route. One hour and 45 minutes later, namely when the animals were in state of catatonia, an aqueous dose of the compound to be studied was administered by oral route to all the animals with the exception of the control group.
The progress of the catatonia was then noted following the scale used in the tests described hereabove.
The maximum score was thus 5 per batch which means that all the animals of the batch were considered to be still in a state of catatonia.

[3] = test system: tremorine-induced cholinergic effects; assay: Anti-tremorine test; type: in vivo, mice (male, OF1 strain); parameters: key to central cholinergic effects score (normal and provoked tremor): 0: no action; 1: slight action; 2: average action; 3: strong action; 4: very strong action
Protocol: When injected into mice, tremorine produces peripheral effects i.e. weeping, sweating, salivation and diarrhoea and central effects i.e. tremor and akinesia. Such effects are due to an increase in the amount of intracerebral acetylcholine and serotonine.
Male mice of the OF1 strain weighing about 22 g were divided into batches of 10. […] Thirty minutes later a dose of 10 mg/kg of tremorine was injected by intraperitoneal route and, at different times after this injection, note was taken of the cholinergic effects on each animal in accordance with the following scale: […]

[4] = Anti-cholinergic (cholinolytic) activity
[5] = test system: neuroleptic-induced catatonia (prochlorperazine); assay: Suppression of neuroleptic-induced catatonia (curative treatment); type: in vivo, rat (male, OFA strain); details: 5 mg/kg, versus amantadine 80 mg/kg
Protocol: Fifty-five minutes later, an oral dose in aqueous solution of the compound to be studied was administered to all the animals with the exception of the control group. The progress of the catatonia was noted following the same scale as that used in the tests described above.

[6] = test system: norepinephrine effects on arterial pressure and nictitating membrane; assay: Influence on peripheral noradrenergic phenomena (arterial pressure, nictitating membrane); details: cat; for Contractile reaction of the nictitating membrane with electric stimulation / Contractile reaction of the nictitating membrane without electric stimulation / Increase in arterial pressure after injection of norepinephrine: i.v.
Protocol: A cat, anaesthetized with pentobarbital, received a sufficient dose of norepinephrine to increase arterial pressure but not sufficient to cause contraction of the nictitating membrane. Arterial pressure was measured at the carotid immediately after administration of the dose of norepinephrine.

catalepsy = assay: Inhibition of prochlorperazine-induced catalepsy (crossing of homolateral paws); type: in vivo; details: Rattus norvegicus, po, 3 h, read-out: dose giving complete inhibition of the catalepsy
Excerpt: […]. These trails involved catalepsy as evidenced by the crossing of the animal's homolateral paws.

[7] = J. Amer. Chem. Soc., 71, 3352 (1949); cited from earlier work
[8] = test system: isolated duodenum of the rat; assay: MAGNUS test, inhibition of acetylcholine spasm in vitro (cholinolytic/spasmolytic)
Excerpt: This test consists in determining the dose of acetylcholine which, when added to the bath, provokes spasm of the isolated duodenum of the rat. The next step consists in determining the dose of the compound under study which, when added to the bath 30 seconds before the acetylcholine, reduces the spasm.

[9] = test system: neuroleptic-induced catatonia (prochlorperazine); assay: Inhibition of neuroleptic-induced catatonia; type: in vivo, rat (male, OFA strain); details: rat, oral; versus amantadine
Protocol: The blocking of dopaminergic receptors by neuroleptics in the extra-pyramidal system induces catatonia in the rat. Catatonia is differentiated from sedative properties by means of the test used hereabove for reserpine-induced catatonia. The same system of scoring was also employed in the present case.
An oral dose of the compound to be studied in aqueous solution was administered to batches of 10 male rats of the OFA strain weighing about 150 to 200 g.
Three hours after the injection of this latter compound, catatonia was measured. An identical trial was also carried out with control animals which received prochlorperazine but none of the compounds under study.

[10] = J. Amer. Chem. Soc., 71, 3352 (1949); cited from earlier work; remark: listed apart in the source
[11] = test system: reserpine-induced catatonia; assay: Inhibition of reserpine-induced catatonia; type: in vivo, rat (male, OFA strain); details: rat
Protocol: Ater sufficient doses of reserpine have been administered to the rat, a series of symptoms occur, more particularly ptosis, catatonia and a drop in central temperature. These symptoms are caused by the depletion of the intrangranular reserve pool of biogenetic amines at the synaptic terminals.
An oral dose of the compound to be studied in aqueous solution was administered to batches of 10 male rats of the OFA strain weighing about 150 to 200 g. Thirty minutes later a dose of 5 mg/kg of reserpine was given by intraperitoneal route. Three hours after the injection of reserpine, the animals were suspended by the four paws to a horizontally stretched wire fixed at 15 cm from the ground. The catatonic animals were those which maintained the position so given for at least 30 seconds. […] The maximum score was therefore 10 per batch. An identical trial was undertaken with control animals which received reserpine but none of the compounds being studied.

CCCC(N)(CCC)CCC [Compound 1]
spasmolytic activity in vivo [1]: non-existent
rapidity of suppression of reserpine-induced catatonia [2]: more rapidly
central cholinergic effects score (normal and provoked tremor) ([3]; 5 mg/kg oral, 20, 30 and 40 minutes after tremorine, printed as identical results): 4
antitremorine properties ([3]; mice, oral): devoid of antitremorine properties
anti-cholinergic (cholinolytic) activity [4]: devoid of anti-cholinergic activity
rapidity of action against neuroleptic-induced catatonia [5]: more rapidly
potentiation of endogenous norepinephrine [6]: does not potentiate
potentiation of exogenous norepinephrine / peripheral adrenergic effects [6]: does not potentiate
Contractile reaction of the nictitating membrane with electric stimulation ([6]; cumulative dose 0.1 mg/kg): 15 mm
Contractile reaction of the nictitating membrane without electric stimulation ([6]; cumulative dose 0.1 mg/kg): 0 mm
Increase in arterial pressure after injection of norepinephrine ([6]; cumulative dose 0.1 mg/kg): 18 mm Hg
Contractile reaction of the nictitating membrane with electric stimulation ([6]; cumulative dose 1 mg/kg): 16 mm
Contractile reaction of the nictitating membrane without electric stimulation ([6]; cumulative dose 1 mg/kg): 0 mm
Increase in arterial pressure after injection of norepinephrine ([6]; cumulative dose 1 mg/kg): 25 mm Hg
Contractile reaction of the nictitating membrane with electric stimulation ([6]; cumulative dose 3 mg/kg): 17 mm
Contractile reaction of the nictitating membrane without electric stimulation ([6]; cumulative dose 3 mg/kg): 0 mm
Increase in arterial pressure after injection of norepinephrine ([6]; cumulative dose 3 mg/kg): 29 mm Hg
Contractile reaction of the nictitating membrane with electric stimulation ([6]; cumulative dose 5 mg/kg): 16 mm
Contractile reaction of the nictitating membrane without electric stimulation ([6]; cumulative dose 5 mg/kg): 0 mm
Increase in arterial pressure after injection of norepinephrine ([6]; cumulative dose 5 mg/kg): 25 mm Hg
Contractile reaction of the nictitating membrane with electric stimulation ([6]; cumulative dose 10 mg/kg): 12 mm
Contractile reaction of the nictitating membrane without electric stimulation ([6]; cumulative dose 10 mg/kg): 0 mm
Increase in arterial pressure after injection of norepinephrine ([6]; cumulative dose 10 mg/kg): 22 mm Hg
potentiation of exogenous norepinephrine / peripheral adrenergic effects ([6]; listed as preferred compound of the invention): does not potentiate the peripheral effects of norepinephrine
ED100 (catalepsy): 5 mg/kg
spasmolytic activity versus the corresponding trialkylethylamines [7]: less spasmolytic
spasmolytic / cholinolytic activity in vitro [8]: virtually non-existent
spasmolytic / cholinolytic activity in vitro ([8]; listed as tri-n-propylmethylamine): very weak, in fact practically non-existent
activity compared with amantadine (neuroleptic-induced catatonia) [9]: twenty times more active
toxicity versus the corresponding trialkylethylamines [10]: more toxic
degree of activity (pharmacological trials) ([11]; in vivo): marked degree of activity
dose of equal activity compared with amantadine (reserpine-induced catatonia) ([11]; oral, versus amantadine): twenty times inferior
